Measurements published in patent publication US10857136B2, “Compounds for use in the prevention and/or treatment of non-alcoholic fat liver disease and non-alcoholic steatohepatitis” (SJT MOLECULAR RESEARCH, SL, priority 2017, dated 2020).

What was measured:
Assay type in all cases: in vivo
[1] = tested on: DIO mice (C57Bl/6J male mice); test: Liver weight, 36 days assay in DIO mice; settings: 50 mg/kg orally twice daily, after 36 days, vs saline control and metformin 150 mg/kg
Description: To assess the performance of the compounds disclosed decreasing liver overweight, DIO mice (C57Bl/6J male mice) were treated with compounds 4a and 5a during 36 days, versus a control of DIO mice treated with vehicle (0.9% NaCl) and DIO mice treated with Metformin as a positive control.
For the assessment, 60 C57Bl/6J male mice (16-week-old at delivery and 40 g of average weight), obtained from Charles River France, were put on high fat diet for 10 weeks. The animals were housed in ventilated and enriched housing cages (310×125×127 mm^3) throughout the experimental phase. Animals' cages litters were changed at least once a week. Mice were housed in groups of 10 mice on a normal 12 hours light cycle (at 08:00 pm lights were switched off), at 22±2° C. and 50±10% relative humidity. After reception, mice were maintained for three additional acclimation weeks. During the whole test (acclimation+treatment phase) a high fat diet (D12492; purchased from Research Diet Inc 60% fat) and tap water were provided ad libitum.
After the acclimation period, mice were fasted for 6 hours and blood glucose and plasma insulin were measured. Ten animals, those with lower blood glucose/plasma insulin, were discarded from the study. Then, the others were randomized into 5 homogenous groups (n=10 mice per group) according to their blood glucose/plasma insulin levels (HOMA-IR) and body weight. […]

[2] = tested on: DIO-NASH mice (C57Bl/6J male mice); test: Triglycerides and cholesterol liver content, 8 weeks assay in DIO-NASH mice; settings: 50 mg/kg, p.o., b.i.d., vs DIO-NASH vehicle
Description: The DIO-NASH mouse model is fed a high fat diet that results on non-alcoholic fat liver disease and are based on C57Bl/6J mice put on a 40% high fat diet prior to the assays. For the assessment of effect of the compounds of the invention in liver lipid content in non-alcoholic fat liver disease, 34 C57Bl/6J male mice (5-week-old at delivery), obtained from Janvier, France, were used. The DIO-NASH mice group were put on high fat diet (40% AMLN diet, D09100301 Research Diets, USA) and a control group (LEAN-CHOW) was put on a regular chow diet (Altromin 1324, Brogaarden, Denmark) for 35 weeks prior to the study.
To assess the effect of compound 4a on hepatic triglyceride or cholesterol content in animals with non-alcoholic fat liver disease, DIO-NASH mice (C57Bl/6J male mice) were treated with a hydrochloride salt of compound 4a during 8 weeks (50 mg/kg, p.o., b.i.d.), versus a pathological control of DIO-NASH mice and a non-pathological control LEAN-CHOW mice, both treated with the vehicle (0.9% NaCl). […]
The triglyceride content in liver was determined using the Triglyceride reagent (Cat. no. 22-045-795, Roche Diagnostics, Germany) on a Cobas™ C-501 autoanalyzer. Homogenized liver tissue was heated to 80-100° C. twice, centrifuged in a microcentrifuge and the triglyceride content was measured in the supernatant.

[3] = tested on: DIO-NASH mice (C57Bl/6J male mice); test: Absolute and relative body weight, 8 weeks assay in DIO-NASH mice; settings: 50 mg/kg, p.o., b.i.d., statistics at day 54, vs DIO-NASH vehicle
Description: The assay was carried out to evaluate the effect of the compounds of the invention on body weight of animals with non-alcoholic fat liver disease (DIO-NASH mice). For this assay, the effect of compound 4a in absolute and relative body weight was evaluated. DIO-NASH mice (C57Bl/6J male mice) were treated with a hydrochloride salt of compound 4a during 8 weeks (50 mg/kg, p.o., b.i.d.), versus a pathological control of DIO-NASH mice and a non-pathological control LEAN-CHOW mice, both treated with the vehicle (0.9% NaCl). The DIO-NASH mice group were put on high fat diet (40% AMLN diet, D09100301 Research Diets, USA) and a control group (LEAN-CHOW) was put on a regular chow diet (Altromin 1324, Brogaarden, Denmark) for 35 weeks prior to the study.
Body weight of for each of the groups taken on a daily basis. The animals were kept under the same conditions were used as in example 2.2.

[4] = tested on: DIO-NASH mice (C57Bl/6J male mice); test: Differential gene expression analysis by RNAseq in liver of DIO-NASH mice
Description: The effect of the compounds of the invention in the development of liver fibrosis was also studied by differential gene expression analysis by RNAseq where DIO-NASH mice (C57Bl/6J male mice) were treated with a hydrochloride salt of compound 4a during 8 weeks (50 mg/kg, p.o., b.i.d.), versus a pathological control of DIO-NASH mice and a non-pathological control LEAN-CHOW mice, both treated with the vehicle (0.9% NaCl).
The animals were kept and examined under the same conditions were used as in example 2.2. The liver biopsies were also carried out under the same conditions as in example 2.2. The DIO-NASH mice group were put on high fat diet (40% AMLN diet, D09100301 Research Diets, USA) and a control group (LEAN-CHOW) was put on a regular chow diet (Altromin 1324, Brogaarden, Denmark) for 35 weeks prior to the study.
FIGS. 12 and 13 show the effect of treatment of DIO-NASH mice with a hydrochloride salt of compound 4a versus a control DIO-NASH mice group treated with vehicle and a LEAN-CHOW […] control group also treated with vehicle, in the expression of collagen genes which are fibrosis markers: collagen type I-alpha 1 (COL1A1) and alpha 2 (COL1A2), collagen type III alpha 1 (COL3A1), collagen V alpha 1 (COL5A1), alpha 2 (COL5A2) and alpha 3 (COL5A3), collagen type VI alpha 1 (COL6A1), alpha 2 (COL6A2) and alpha 3 (COL6A3).
Results are given as expression level in RPKM for each mice group, wherein RPKM (Reads per kilo base per million mapped reads) is a method of quantifying gene expression from RNA sequencing data by normalizing for […] and the number of sequencing reads.
Date expressed as mean±s.e.m. values from 6 animals. ***P<0.001 vs. NASH vehicle.

COc1ccc(-c2nc(C(=O)NCCN)cc3c2[nH]c2ccccc23)cc1 [Compound 4a, N(-ethylamine)-1-benzosubstituted-β-carboline-3-carboxamide]
liver weight (liver overweight) [1]: lower liver weight than either mice treated with metformin or than the control animals
liver cholesterol levels [2]: reduced liver cholesterol levels
liver triglyceride levels [2]: reduced liver triglyceride levels
absolute body weight [3]: reduced body weight
relative body weight versus the body weight at the start of the treatment (day 0 is 100%) [3]: reduced relative body weight significantly
expression of CD36 (lipid metabolism) ([4]; 50 mg p.o., b.i.d, 8 weeks): decreased expression
expression of Casp7 and IL18 (hepatocellular cell death) ([4]; 50 mg p.o., b.i.d, 8 weeks): increased expression
expression of GLUT4 (insulin signaling) ([4]; 50 mg p.o., b.i.d, 8 weeks): increased expression
expression of MAPK and AKT (insulin signaling) ([4]; 50 mg p.o., b.i.d, 8 weeks): decreased expression
expression of SQLE (lipid metabolism) ([4]; 50 mg p.o., b.i.d, 8 weeks): increased expression
fibrosis genes related to stellate cell activation, such as Col1a1, Col3a1 and TIMP1 ([4]; 50 mg p.o., b.i.d, 8 weeks): reduction
inflammation markers related to monocyte recruitment, such as CD68, CCR2, MAC-2 ([4]; 50 mg p.o., b.i.d, 8 weeks): reduction
TLR4, TGFB and TGFBR gene expression (inflammation signaling) ([4]; 50 mg/kg, p.o., b.i.d., 8 weeks): reduction
expression of collagen genes (COL1A1, COL1A2, COL3A1, COL5A1, COL5A2, COL5A3, COL6A1, COL6A2, COL6A3) ([4]; 50 mg/kg, p.o., b.i.d., 8 weeks, vs DIO-NASH vehicle, P<0.001): significantly reduced the expression of the collagen genes
number of genes regulated ([4]; 8 weeks treatment, RNAseq): more than 2000 genes
